Reference: US20250108064A1, “PHOSPHATE PRODRUGS OF CANNABINOIDS” (priority 2021, published 2025)

Columns and labels:
Format in all cases: in vitro ADME
[1] = Brain homogenate stability assay; conditions: mouse brain homogenate, 37° C.
Excerpt: General Experimental: Purchases were made for DPBS (1X) (Gibco) and Pierce BCA Assay kit for protein quantification (Thermo Fischer). Frozen mouse brain homogenate was provided by Dr. Scott Myers at Emory University School of Medicine (C57BL/6J adult male mice (Jackson Laboratory), 239 days (34 weeks) old). Briefly, each mouse was euthanized via isoflurane overdose and immediately upon cessation of breathing the chest cavity was opened and the left ventricle punctured with a 21G needle, the vena cava was then clipped and the body perfused with cold PBS (pH 7.35) for 2 min. Following, the brain was removed (on ice) and the forebrain separated from the cerebellum. The forebrain wet weight was recorded and placed into 3 mL ice cold HBSS (Hank's Balanced Salt Solution, pH 7.4), and then homogenized for 10 secs at 3/4 max setting. […] The amount of protein in the mouse brain homogenate was quantified using the Pierce BCA assay kit before running the stability assay.
Procedure for Brain Homogenate Stability Assay: 10 mM stock solution was prepared in 100% DMSO for each test compound. […] The supernatant was transferred into the HPLC vials, and measured by LC-MS/MS. Half-life (T1/2) was calculated using the data obtained from LC-MS/MS and by plotting ln (% remaining of the parent prodrug) versus time and performing linear regression to determine slope. […]

[2] = Liver microsome stability assay (HLM); conditions: human, microsomes, pH 7.4; 3 μM test compound, NADPH; read-out: T½ in HLM
Method: General Experimental: Human and mouse liver microsomes were purchased from Xenotech at 20 mg/mL. NADPH (Sigma-Aldrich) 10 mM stocks were prepared in deionized water.
Procedure for Liver Microsome Stability Assay: Test compounds and positive controls were dissolved in 100% DMSO to make 10 mM stock solutions. Verapamil (Sigma-Aldrich) and diphenhydramine (Sigma-Aldrich) were used as positive controls for both human liver microsomes (HLM) and mouse liver microsomes (MLM). The 10 mM stock solutions of test and control compounds were further diluted in potassium phosphate buffer (100 mM, pH 7.4) to 500 μM to ensure that the organic solvent content was <0.2%. The liver microsome (HLM or MLM) assay was prepared in a 1.5 mL Eppendorf tube with a final volume of 1100 μL for duplicate runs. Each reaction contained phosphate buffer (928.4 μL), liver microsomes (55 μL), and test compound (6.6 μL of 500 μM), resulting in a final concentration of 3 μM for the test compound. The reaction was initiated with 110 μL of 10 mM NADPH. Aliquots (100 μL) were removed in duplicate at 0, 5, 10, 15, and 30 min and quenched in […] of 100% cold methanol which contained internal standard (ISTD: d5-7-ethoxy coumarin 2 μM). The aliquots were centrifuged at 12,000 g for 5 min, and the supernatant was transferred and placed in an LC-MS vial. Each time point was assessed by LC-MS/MS, and the area under the m/z curve (AUC), based on the MRM transition, was integrated w.r.t the ISTD. Positive controls were conducted at a final volume of 550 μL to enable a single run for each time point. Negative controls in the absence of NADPH were performed with the test and control compounds, respectively, at a final volume of 150 μL and measured at the most prolonged time point. Control compounds were processed and analyzed like test compounds. Each time point was run in triplicates on LC-MS/MS followed by in-between blank washes to avoid the carryover and to equilibrate the column. Half-life (T1/2) was calculated using the data obtained from LC-MS/MS and by plotting ln (% remaining of the parent prodrug) versus time and performing linear regression to determine slope. Slope=−k and T1/2=0.693/k for first-order kinetics.

[3] = Plasma stability (mouse plasma); conditions: read-out: T½ in mouse plasma (converted)
[4] = Simulated Gastric Fluid stability assay; conditions: simulated gastric fluid (SGF) with pepsin, pH 1.2; SGF pH about 1.2 with pepsin, 37° C.; read-out: T½ in SGF (converted)
Method: General Experimental: Simulated Gastric Fluid (SGF) is a pH 1.2 HCl solution with purified pepsin (800-2500 units of activity) (Test Solutions, The United States Pharmacopoeia (USP), 2008). SGF was prepared according to a procedure described in Test Solution—USP and other published articles (Bioorganic Chemistry, 49 (2013), 40-48). Sodium chloride 0.20 g and purified pepsin 0.32 g (Sigma), derived from porcine stomach mucosa with an activity of 800 to 2500 units per mg of protein, were dissolved in 0.70 mL hydrochloric acid and sufficient water to make 100 mL. […] The SGF solution prepared was used for in vitro studies to evaluate the prodrug stability.
At specified time intervals, aliquots (100 μL) were withdrawn and added to pre-cooled 100% acetonitrile (200 μL spiked with ISTD) and mixed well by vortex mixing for 2 min. The mixture was centrifuged at 13000 rpm for 15 min at 4° C.

Structure (SMILES): C=C(C)[C@@H]1CCC(C)=C[C@H]1c1c(O)cc(CCCCC)cc1OC(=O)C1(OP(=O)(O)O)CC1.N.N [7b, 1-((((1′R,2′R)-6-hydroxy-5′-methyl-4-pentyl-2′-(prop-1-en-2-yl)-1′,2′,3′,4′-tetrahydro-[1,1′-biphenyl]-2-yl)oxy)carbonyl)cyclopropyl phosphate di-ammonium salt]
- brain homogenate stability (metabolism and metabolite formation) [1]: metabolism of compound 7b and formation of CBD
- half-life [2]: 157 min
- half-life [3]: 222 min
- half-life at 2 mM [4]: > 180 min
